Read-outs that look alike come from different tables or passages of the source.
How the values were obtained:
human CTPS1 versus CTPS2 = experiment: Human CTPS1 versus CTPS2 selectivity assessment by RapidFire/MS analysis; type: biochemical; settings: Table 26
Experimental: Biological Example 2—RapidFire/MS-Based Enzyme Selectivity Assays.
Human CTPS1 Versus CTPS2 Selectivity Assessment by RapidFire/MS Analysis.
The enzyme inhibitory activities against each target isoform of interest may be determined for the compounds of the invention using an optimised RapidFire high-throughput mass spectrometry (RF/MS) assay format. RF/MS assays for both human CTPS1 and CTPS2 may be performed in assay buffer consisting of 50 mM HEPES (Merck), 20 mM MgCl2, 5 mM KCl, 1 mM DTT, 0.01% Tween-20, pH to 8.0 accordingly. Human full-length active C-terminal FLAG-His-tag CTPS1 (UniProtKB-P17812, CTPS[1-591]-[…]) may be obtained from Proteros biostructures GmbH. Human full length active C-terminal FLAG-His-Avi tagged CTPS2 (UniProtKB-Q9NRF8, CTPS2 [1-586]-[…]) may be obtained from Harker Bio.
Human CTPS (1 or 2) protein may be prepared in 1× assay buffer to the final working protein concentration required for the reaction. A 2 uL volume per well of 2×CTPS (1 or 2) protein may be mixed with 40 nL of compound using acoustic (ECHO) delivery and incubated for 10 minutes at 25° C. Each isoform enzymatic reaction may be subsequently initiated by addition of 2 uL per well of a 2× substrate mix in assay buffer. For hCTPS1: ATP (0.3 mM), UTP (0.2 mM), GTP (0.07 mM) and L-glutamine (0.1 mM). For hCTPS2: ATP (0.1 mM), UTP (0.04 mM), GTP (0.03 mM) and L-glutamine (0.1 mM). Each mixture may be incubated for an appropriate amount of time per isoform within the determined linear phase of the reaction at 25° C. A 60 uL volume of stop solution (1% formic acid with 0.5 uM ^13C9-^15N3-CTP in H2O) may be added and the plate immediately heat-sealed and centrifuged for 10 minutes at 4,000 rpm. Following centrifugation, plates may be loaded onto the Agilent RapidFire microfluidic solid phase extraction system coupled to an AP14000 triple quadrupole mass spectrometer (RF/MS) for analysis.
In all cases, the enzyme converts UTP to CTP. Highly specific and sensitive multiple reaction monitoring (MRM) MS methods may be optimised for the detection of the enzymatic reaction product, CTP, and the stable isotope labelled product standard ^13C9-^15N3-CTP. Readout for data analysis may be calculated as the ratio between the peak area of the product CTP and the internal standard ^13C9-^15N3-CTP. For data reporting, the following equation may be used: […]
For each screening plate, the means of the negative (DMSO) and positive control values were used for the calculation of the respective assay window (S/B) and Z′ values. The median of the respective control values was used for calculation of percent inhibition according to the following equation: […]
(§1) Percentage inhibition was then plotted against compound concentration, and the 50% inhibitory concentration (IC50) was determined from the resultant concentration-response curve.
Fold selectivity between CTPS1 and CTPS2 was subsequently calculated according to the following equation: […]

human CTPS1 = target: T1, human CTPS1 (Homo sapiens, UniProt P17812); experiment: Human CTPS1 enzyme inhibition (ADP-Glo Max assay); type: biochemical; settings: read-out: CTPS1 (Human CTPS1 Enzyme Inhibition data grouped by potency range, IC50)
T1 construct: purchased Proteros biostructures GmbH
T1 sequence (P17812 1-591): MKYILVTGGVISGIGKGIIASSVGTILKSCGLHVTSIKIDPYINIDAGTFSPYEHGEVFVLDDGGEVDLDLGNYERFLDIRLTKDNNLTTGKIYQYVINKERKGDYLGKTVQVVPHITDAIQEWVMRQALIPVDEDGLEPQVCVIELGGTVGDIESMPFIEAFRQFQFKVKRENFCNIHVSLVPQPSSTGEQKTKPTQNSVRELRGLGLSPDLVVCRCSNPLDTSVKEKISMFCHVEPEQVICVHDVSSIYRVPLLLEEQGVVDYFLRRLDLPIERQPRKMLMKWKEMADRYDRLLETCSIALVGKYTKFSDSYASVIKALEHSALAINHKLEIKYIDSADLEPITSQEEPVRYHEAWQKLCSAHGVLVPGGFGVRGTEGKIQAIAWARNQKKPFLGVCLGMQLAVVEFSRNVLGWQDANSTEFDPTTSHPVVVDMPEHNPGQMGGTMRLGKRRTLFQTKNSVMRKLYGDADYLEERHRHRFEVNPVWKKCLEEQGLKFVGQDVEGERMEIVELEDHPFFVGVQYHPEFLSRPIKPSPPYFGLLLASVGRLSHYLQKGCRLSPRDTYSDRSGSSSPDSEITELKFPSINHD
Experimental: Biological Example 1—Human CTPS1 Enzyme Inhibition
The enzyme inhibitory activities of compounds invented against the target of interest were determined using the ADP-Glo™ Max assay (Promega, UK). Assays for human CTPS1 were performed in 1× assay buffer containing 50 mM Tris, 10 mM MgCl2, 0.01% Tween-20, pH to 8.0 accordingly. Finally, immediately before use, L-cysteine was added to the 1× assay buffer to a final concentration of 2 mM. All reagents are from Sigma-Aldrich unless specified otherwise. Human full length active C-terminal FLAG-Hiss-tag CTPS1 (UniProtKB-P17812, CTPS[1-591]-[…]) was obtained from Proteros biostructures GmbH.
3× human CTPS1 protein was prepared in 1× assay buffer to the final working protein concentration required for the reaction. A 2 uL volume per well of 3× human CTPS1 protein was mixed with 2 uL per well of 3× test compound (compound prepared in 1× assay buffer to an appropriate final 3× compound concentration respective to the concentration response curve designed for the compounds under test) for 10 minutes at 25° C. The enzymatic reaction was then initiated by addition of a 2 uL per well volume of a pre-mixed substrate mix (UltraPure ATP from ADP-Glo™ Max kit (0.31 mM), GTP (0.034 mM), UTP (0.48 mM) and L-glutamine (0.186 mM)) and the mixture was incubated for an appropriate amount of time within the determined linear phase of the reaction at 25° C. under sealed plate conditions with constant agitation at 500 revolutions per minute (rpm). ADP-Glo™ Max reagent was added for 60 minutes (6 μL per well) and subsequently ADP-Glo™ Max development reagent was added for 60 minutes (12 uL per well) prior to signal detection in a microplate reader (EnVision® Multilabel Reader, Perkin Elmer). Following each reagent addition over the course of the assay, assay plates were pulse centrifuged for 30 seconds at 500 rpm.
In all cases, the enzyme converts ATP to ADP and the ADP-Glo™ Max reagent subsequently depletes any remaining endogenous ATP in the reaction system. The ADP-Glo™ Max detection reagent converts the ADP that has been enzymatically produced back into ATP and using ATP as a substrate together with luciferin for the enzyme luciferase, light is generated which produces a detectable luminescence. […] The percentage inhibition produced by each concentration of compound was calculated using the equation shown below: […]
as §1

| SMILES | IC50 (human CTPS1; Table 23, ADP-Glo Max assay) [nM] | other results |
| --- | --- | --- |
| CCOc1cncc(-c2ccc(NC(=O)C(F)(CC)c3ccnc(NS(=O)(=O)C4CC4)n3)nc2)n1 (racemic) [Example P112, 2-(2-(Cyclopropanesulfonamido)pyrimidin-4-yl)-N-(5-(6-ethoxypyrazin-2-yl)pyridin-2-yl)-2-fluorobutanamide] | – | Selectivity (fold selectivity between CTPS1 and CTPS2) (human CTPS1 versus CTPS2): ++ (>30-60 fold (++)) |
| CCOc1cncc(-c2ccc(NC(=O)C(F)(CC)c3ccnc(NS(=O)(=O)C4CC4)n3)nc2)n1 (single isomer, unassigned) [Example P113, 2-(2-(cyclopropanesulfonamido)pyrimidin-4-yl)-N-(5-(6-ethoxypyrazin-2-yl)pyridin-2-yl)-2-fluorobutanamide] | – | Selectivity (fold selectivity between CTPS1 and CTPS2) (human CTPS1 versus CTPS2): + (2-30 fold (+)) |
| CCOc1cncc(-c2ccc(NC(=O)C(F)(CC)c3ccnc(NS(=O)(=O)C4CC4)n3)nc2)n1 (single isomer, unassigned) [Example P114, 2-(2-(cyclopropanesulfonamido)pyrimidin-4-yl)-N-(5-(6-ethoxypyrazin-2-yl)pyridin-2-yl)-2-fluorobutanamide] | – | Selectivity (fold selectivity between CTPS1 and CTPS2) (human CTPS1 versus CTPS2): +++ (>60 fold (+++)) |
| CCOc1cncc(-c2ccc(NC(=O)C(F)(CC)c3cncc(NS(=O)(=O)C4CC4)n3)nc2)n1 (single isomer, unassigned) [Example P206] | – | Selectivity (fold selectivity between CTPS1 and CTPS2) (human CTPS1 versus CTPS2): +++ (>60 fold (+++)) |
| CCOc1cncc(-c2ccc(NC(=O)C(F)(CC)c3cncc(NS(=O)(=O)C4CC4)n3)nc2)n1 (single isomer, unassigned) [Example P207] | – | Selectivity (fold selectivity between CTPS1 and CTPS2) (human CTPS1 versus CTPS2): + (2-30 fold (+)) |
| O=C(Cc1cccc(NS(=O)(=O)C2CC2)n1)Nc1ccc(-c2cncc(C(F)(F)F)n2)cc1 [Example P172] | 100 to 1000 | – |
| COc1cncc(-c2ccc(NC(=O)Cc3cccc(NS(=O)(=O)C4CC4)n3)cc2)n1 [Example P173] | ≤ 100 | – |
| O=C(Cc1cccc(NS(=O)(=O)C2CC2)n1)Nc1ccc(-c2cnccn2)cc1 [Example P174] | 1000 to 10000 | – |
| CC(C)(C(=O)Nc1ccc(-c2cccnc2)cn1)c1cccc(NS(=O)(=O)C2CC2)n1 [Example P175] | 1000 to 10000 | – |
| CC(C)(C(=O)Nc1ccc(-c2cncc(Cl)c2)cc1)c1cccc(NS(=O)(=O)C2CC2)n1 [Example P176] | 1000 to 10000 | – |
| CC(C)(C(=O)Nc1ccc(-c2cncc(F)c2)cc1)c1cccc(NS(=O)(=O)C2CC2)n1 [Example P177] | 1000 to 10000 | – |
| CCOc1cncc(-c2ccc(NC(=O)C(C)(C)c3cccc(NS(=O)(=O)C4CC4)n3)cc2)c1 [Example P178] | 1000 to 10000 | – |
| CC(C)(C(=O)Nc1ccc(-c2cccnc2)cc1)c1cccc(NS(=O)(=O)C2CC2)n1 [Example P179] | 1000 to 10000 | – |
| CC(C)(C(=O)Nc1ccc(-c2cnccn2)cc1F)c1cccc(NS(=O)(=O)C2CC2)n1 [Example P180] | 1000 to 10000 | – |
| CC(C)(C(=O)Nc1ccc(-c2cncc(C(F)(F)F)n2)cc1)c1cccc(NS(=O)(=O)C2CC2)n1 [Example P181] | 1000 to 10000 | – |
| CC(C)(C(=O)Nc1ccc(-c2cncc(Cl)n2)cc1)c1cccc(NS(=O)(=O)C2CC2)n1 [Example P182] | 100 to 1000 | – |
| CCOc1cncc(-c2ccc(NC(=O)C(C)(C)c3cccc(NS(=O)(=O)C4CC4)n3)cc2)n1 [Example P183] | 100 to 1000 | – |
| COc1cncc(-c2ccc(NC(=O)C(C)(C)c3cccc(NS(=O)(=O)C4CC4)n3)cc2)n1 [Example P184] | 100 to 1000 | – |
| CC(C)(C(=O)Nc1ccc(-c2cnccn2)cc1)c1cccc(NS(=O)(=O)C2CC2)n1 [Example P185] | 1000 to 10000 | – |
| CCOc1cncc(-c2ccc(NC(=O)C3(c4cccc(NS(=O)(=O)C5CC5)n4)CCOCC3)nc2)n1 [Example P186] | ≤ 100 | – |
| O=C(Cc1cncc(NS(=O)(=O)C2CC2)n1)Nc1ccc(-c2cccnc2)cc1 [Example P192] | 1000 to 10000 | – |
| CCS(=O)(=O)Nc1cncc(CC(=O)Nc2ccc(-c3cccnc3)cc2)n1 [Example P193] | 1000 to 10000 | – |
| CCOc1cncc(-c2ccc(C(=O)NC3(c4ccnc(NS(=O)(=O)C5CC5)n4)CC3)c(F)c2)n1 [Example P209] | 100 to 1000 | – |
| CCOc1cncc(-c2ccc(CNC(CC)c3ccnc(NS(=O)(=O)C4CC4)n3)c(F)c2)n1 (stereo not drawn) [Example P235, N-(4-(1-((4-(6-Ethoxypyrazin-2-yl)-2-fluorobenzyl)amino)propyl)pyrimidin-2-yl)cyclopropanesulfonamide] | – | IC50 (human CTPS1; Table 24, ADP-Glo Max assay): 100 to 1000 nM |
| CCOc1cncc(-c2ccc(CNC3(c4ccnc(NS(=O)(=O)C5CC5)n4)CC3)nc2)n1 [Example P254] | – | IC50 (human CTPS1; Table 24, ADP-Glo Max assay): 100 to 1000 nM |
| CCOc1cncc(-c2ccc(CNC3(c4ccnc(NS(=O)(=O)C5CC5)n4)CC3)c(F)c2)n1 [Example P255] | – | IC50 (human CTPS1; Table 24, ADP-Glo Max assay): 100 to 1000 nM |
| CCOc1cncc(-c2ccc(NCC3(c4ccnc(NS(=O)(=O)C5CC5)n4)CCOCC3)cc2)n1 [Example P256] | – | IC50 (human CTPS1; Table 24, ADP-Glo Max assay): 100 to 1000 nM |
| CCOc1cncc(-c2ccc(NC(=O)C3(c4ccnc(NS(=O)(=O)C5CC5)n4)CC4(C3)OCCO4)nc2)n1 [Example P258] | – | IC50 (human CTPS1; Table 24, ADP-Glo Max assay): ≤ 100 nM |
| CCOc1cncc(-c2ccc(NC(=O)C3(c4ccnc(NS(=O)(=O)C5CC5)n4)CCC(OC)CC3)nc2)n1 (stereo not drawn) [Example P260] | – | IC50 (human CTPS1; Table 24, ADP-Glo Max assay): ≤ 100 nM |
| CCOc1cncc(-c2ccc(NC(=O)C3(c4ccnc(NS(=O)(=O)C5(C#N)CC5)n4)CCOCC3)nc2)n1 [Example P285, 4-(2-((1-cyanocyclopropane)-1-sulfonamido)pyrimidin-4-yl)-N-(5-(6-ethoxypyrazin-2-yl)pyridin-2-yl)tetrahydro-2H-pyran-4-carboxamide] | – | IC50 (human CTPS1; Table 25, compounds where R1 is substituted by CN): ≤ 100 nM |
